The test has as its system human umbilical vein endothelial cells (HUVEC). The test is described as follows: HUVEC proliferation assay. It counts as cell-based. Conditions: Homo sapiens, HUVEC, crude combinatorial urea library; for inhibition at 0.01 µM: 10 nM, read-out: Inhibition of HUVEC Proliferation % inhibition @ 10 nM; for inhibition at 0.05 µM: 50 nM, read-out: Inhibition of HUVEC Proliferation % inhibition @ 50 nM. The protocol: HUVEC Proliferation Assay
This assay determines the ability of a test compound to inhibit the growth factor-stimulated proliferation of human umbilical vein endothelial cells (“HUVEC”). HUVEC cells (passage 3-4, Clonetics, Corp.) were thawed into EGM2 culture medium (Clonetics Corp) in T75 flasks. Fresh EGM2 medium was added to the flasks 24 hours later. Four or five days later, cells were exposed to another culture medium (F12K medium supplemented with 10% fetal bovine serum (FBS), 60 μg/ml endothelial cell growth supplement (ECGS), and 0.1 mg/ml heparin). Exponentially-growing HUVEC cells were used in experiments thereafter. Ten to twelve thousand HUVEC cells were plated in 96-well dishes in 100 μl of rich, culture medium (described above). The cells were allowed to attach for 24 hours in this medium. The medium was then removed by aspiration and 105 μl of starvation media (F12K+1% FBS) was added to each well. After 24 hours, 15 μl of test agent dissolved in 1% DMSO in starvation medium or this vehicle alone was added into each treatment well; the final DMSO concentration was 0.1%. One hour later, 30 μl of VEGF (30 ng/ml) in starvation media was added to all wells except those containing untreated controls; the final VEGF concentration was 6 ng/ml. Cellular proliferation was quantified 72 hours later by MTT dye reduction, at which time cells were exposed for 4 hours MTT (Promega Corp.). Dye reduction was stopped by addition of a stop solution (Promega Corp.) and absorbance at 595 λ was determined on a 96-well spectrophotometer plate reader.
IC50 values were calculated by curve-fitting the response of A^595 to various concentrations of the test agent; typically, seven concentrations separated by 0.5 log were employed, with triplicate wells at each concentration. For screening compound library plates, one or two concentrations (one well per concentration) were employed, and the % inhibition was calculated by the following formula:
% inhibition=(control−test) divided by (control−starvation) […]
control=A^595 when VEGF is present without test agent test=A^595 when VEGF is present with test agent starvation=A^595 when VEGF and test agent are both absent.

Consider `COc1cccc(C(=O)Nc2cccc(-c3csc(-c4sc(NC(=O)NCCNc5ccccc5)nc4N)n3)c2)c1`, for which the inhibition at 0.01 µM was found to be 28% and the inhibition at 0.05 µM was found to be 62%.
Regarding `COc1cccc(C(=O)Nc2cccc(-c3csc(-c4sc(NC(=O)NCCc5ccc(S(N)(=O)=O)cc5)nc4N)n3)c2)c1`, the inhibition at 0.01 µM stood at 34% and the inhibition at 0.05 µM came to 49%.
In the same order, the values of `CCCCN(CC)CCNC(=O)Nc1nc(N)c(-c2nc(-c3cccc(NC(=O)c4cccc(OC)c4)c3)cs2)s1` are 1% and 10%.
In the same order, the values of `COc1cccc(C(=O)Nc2cccc(-c3csc(-c4sc(NC(=O)NCc5ccc(N(C)C)cc5)nc4N)n3)c2)c1` are 19% and 67%.
In the same order, the values of `COc1cccc(C(=O)Nc2cccc(-c3csc(-c4sc(NC(=O)NCP(=O)(O)O)nc4N)n3)c2)c1` are -8% and 38%.
In the case of `COc1cccc(C(=O)Nc2cccc(-c3csc(-c4sc(NC(=O)NC(CO)CO)nc4N)n3)c2)c1`, the inhibition at 0.01 µM is -17% and the inhibition at 0.05 µM is 52%.
For the compound `COc1cccc(C(=O)Nc2cccc(-c3csc(-c4sc(NC(=O)NCc5ccc(N)cc5)nc4N)n3)c2)c1`, the inhibition at 0.01 µM is 4% and the inhibition at 0.05 µM worked out at 35%.
Taken in the same sequence, the figures for `COc1cccc(C(=O)Nc2cccc(-c3csc(-c4sc(NC(=O)N[C@@H](CO)C(N)=O)nc4N)n3)c2)c1` were 5% and 24%.
Taken in the same sequence, the figures for `COc1cccc(C(=O)Nc2cccc(-c3csc(-c4sc(NC(=O)NCCNC(C)=O)nc4N)n3)c2)c1` were 20% and 77%.
`COc1cccc(C(=O)Nc2cccc(-c3csc(-c4sc(NC(=O)N[C@H](CO)Cc5c[nH]cn5)nc4N)n3)c2)c1`: the inhibition at 0.01 µM was determined as 16% and the inhibition at 0.05 µM turned out to be 19%.
Taken in the same sequence, the figures for `CCC(CO)NC(=O)Nc1nc(N)c(-c2nc(-c3cccc(NC(=O)c4cccc(OC)c4)c3)cs2)s1` (stereo not drawn) were 13% and 62%.
Taken in the same sequence, the figures for `COc1cccc(C(=O)Nc2cccc(-c3csc(-c4sc(NC(=O)NCCCC(=O)O)nc4N)n3)c2)c1` were 23% and 24%.
Taken in the same sequence, the figures for `COc1cccc(C(=O)Nc2cccc(-c3csc(-c4sc(NC(=O)NCCOCCO)nc4N)n3)c2)c1` were 13% and 92%.
Consider `COc1cccc(C(=O)Nc2cccc(-c3csc(-c4sc(NC(=O)NCCN5CCOCC5)nc4N)n3)c2)c1`, for which the inhibition at 0.01 µM was 1% and the inhibition at 0.05 µM turned out to be 121%.
In the same order, the values of `COc1cccc(C(=O)Nc2cccc(-c3csc(-c4sc(NC(=O)NCCN5CCNCC5)nc4N)n3)c2)c1` are 4% and 39%.
As to `COc1cccc(C(=O)Nc2cccc(-c3csc(-c4sc(NC(=O)NCCc5ccccn5)nc4N)n3)c2)c1`, the inhibition at 0.01 µM is -2% and the inhibition at 0.05 µM amounted to 128%.
Taken in the same sequence, the figures for `COc1cccc(C(=O)Nc2cccc(-c3csc(-c4sc(NC(=O)NCCN5CCCC5)nc4N)n3)c2)c1` were 7% and 17%.
Taken in the same sequence, the figures for `COCC(C)NC(=O)Nc1nc(N)c(-c2nc(-c3cccc(NC(=O)c4cccc(OC)c4)c3)cs2)s1` (stereo not drawn) were 8% and 42%.
Taken in the same sequence, the figures for `COc1cccc(C(=O)Nc2cccc(-c3csc(-c4sc(NC(=O)NCc5ccccn5)nc4N)n3)c2)c1` were -5% and 103%.
Regarding `COc1cccc(C(=O)Nc2cccc(-c3csc(-c4sc(NC(=O)NCc5cccnc5)nc4N)n3)c2)c1`, the inhibition at 0.01 µM was 3% and the inhibition at 0.05 µM was 105%.
In the same order, the values of `COc1cccc(C(=O)Nc2cccc(-c3csc(-c4sc(NC(=O)NCc5ccncc5)nc4N)n3)c2)c1` are -2% and 116%.

For the origin of these results see patent publication US6620828B2, “Thiazole compounds and pharmaceutical compositions for inhibiting protein kinases and methods for their use” (Agouron Pharmaceuticals, Inc., priority 1999, dated 2003).
